From PMC10485894, “Corticosteroids as Selective and Effective Modulators of Glycine Receptors” (ACS Chemical Neuroscience, 2023)
Read-outs that look alike come from different tables or passages of the source.

How the values were obtained:
[1] = test system: GABA-A receptors (GABAAR); experiment: GABA-activated chloride current (IGABA), whole-cell patch clamp in isolated cerebellar Purkinje cells
Experimental: (§1) First, the ability of steroids to affect the holding current at the voltage-clamp regime was tested. […] Next, the influence of all of the compounds on IGABA and IGly was evaluated. […] The latter effect was quantified by the change in the time constant of the IGly decay (IGly τdes).
(§2) The cells were isolated from rat brain slices as described in detail elsewhere.[47] Briefly, the slices (200–500 μm) of Wistar rat (11–14 days of age) hippocampus or cerebellum were incubated at room temperature for at least 2 h in a solution containing the following components (in mM): 124 NaCl, 3 KCl, 2 CaCl2, 2 MgSO4, 25 NaHCO3, 1.3 NaH2PO4, and 10 D-glucose, pH 7.4. The saline was continuously stirred and bubbled with carbogen (95% O2 + 5% CO2). Single pyramidal neurons from the hippocampal CA3 area or Purkinje cells from sagittal slices of the cerebellum were isolated by a vibrating fused glass pipet with a spherical tip.
(§3) Transmembrane currents were recorded using a conventional patch-clamp technique in the whole-cell configuration. […] The solution in the recording pipet contained the following (in mM): 40 CsF, 100 CsCl, 0.5 CaCl2, 5 EGTA, 3 MgCl2, 4 NaATP, 5 HEPES, pH 7.3. The composition of the extracellular solution was as follows (in mM): 140 NaCl, 3 KCl, 3 CaCl2, 3 MgCl2, 10 D-glucose, 10 HEPES hemisodium, pH 7.4. The speed of perfusion was 0.6 mL/min. Recording of the currents was performed using an EPC7 patch-clamp amplifier (HEKA Elektronik, Germany). The holding potential was maintained at −70 mV. Transmembrane currents were filtered at 3 kHz, stored, and analyzed with IBM-PC computer, using homemade software.
(§4) Statistical analysis was performed with Prism Graphpad software. […] N = 6–8 cells from 3 animals for every average value. […] The EC50 value for steroid potentiation of the IGABA was determined using the equation: Y = Bottom + (Top – Bottom)/[1 + (EC50/C)^n], where Bottom and Top are current amplitudes measured in the control solution and in the presence of steroid, respectively, C is the concentration of steroid, EC50 is the half-maximal stimulating concentration, and n is the slope factor (Hill coefficient).

[2] = test system: glycine receptors (GlyR); experiment: Glycine-activated chloride current (IGly), whole-cell patch clamp in isolated hippocampal pyramidal neurons; settings: for Ipeak max (maximum inhibition attainable) / IC50 / τdes max (maximum inhibition attainable) / normalized charge (Q) of IGly, maximum inhibition (max): 100 μM glycine; for Ipeak max (maximum inhibition attainable) / τdes max (maximum inhibition attainable) / normalized charge (Q) of IGly, maximum inhibition (max): fraction; for IGly peak, effect at 10 μM / IGly τdes, effect at 10 μM: steroid 10 μM coapplied with 100 μM glycine; for IGly peak, effect at 10 μM: hippocampal neurons; for IGly τdes, effect at 10 μM: time constant of IGly decay; for τdes max (maximum inhibition attainable): time constant of desensitization of IGly;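 as to all read-outs here: rat CA3 hippocampal pyramidal cells, whole-cell voltage clamp held at −70 mV, steroids tested over 0.01–100 µM, 6–8 cells from 3 animals per mean value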
Experimental: as §1, §2, §3, §4

[3] = steroid 10 μM coapplied with GABA (2 or 5 μM), Purkinje cells
[4] = read-out: Ipeak IC50, peak amplitude of IGly
[5] = read-out: τdes IC50, acceleration of IGly desensitization
[6] = read-out: normalized charge (Q) of IGly, IC50, area under the IGly curve

SMILES	IGABA peak, effect at 10 μM [1, 3]	Ipeak max (maximum inhibition attainable) ([2]; peak amplitude of IGly)	IC50 [2, 4] [µM]	IC50 [2, 5] [µM]	IGly peak, effect at 10 μM [2]	IGly τdes, effect at 10 μM [2] [%]	τdes max (maximum inhibition attainable) [2]	IGABA peak, effect at 10 μM [1]	other results
C[C@]12CCC(=O)C=C1CC[C@@H]1[C@@H]2[C@@H](O)C[C@@]2(C)[C@H]1CC[C@]2(O)C(=O)CO [Cortisol, 11β,17α,21-Trihydroxypregn-4-ene-3,20-dione]	No effect	0.49 ± 0.1	20.2 ± 9.8	0.63 ± 0.02	-23%	-40	0.42 ± 0.05		
C[C@]12CCC(=O)C=C1CC[C@@H]1[C@@H]2C(=O)C[C@@]2(C)[C@H]1CC[C@]2(O)C(=O)CO [Cortisone, 17α,21-Dihydroxypregn-4-ene-3,11,20-trione]	No effect	0.57 ± 0.1	13.6 ± 5.5	10.3 ± 3.4	-25%	-24	0.48 ± 0.06		
C[C@]12C[C@H](O)[C@H]3[C@@H](CCC4=CC(=O)CC[C@@]43C)[C@@H]1CC[C@@H]2C(=O)CO [CORT, 11β,21-Dihydroxypregn-4-ene-3,20-dion]	No effect	0.54 ± 0.1	12.6 ± 4.8	0.43 ± 0.05	-26%	-64	0.64 ± 0.02		
CN1CCc2cc3c(cc2[C@H]1[C@@H]1OC(=O)c2c1ccc1c2OCO1)OCO3 [bicuculline]									effect on IGABA [1]: reversibly blocked
NCC(=O)O [glycine]									EC50 ([2]; read-out: EC50 of glycine for IGly, 600–1000 ms application): 90 ± 7 µM
C[C@]12CC[C@@H](O)C[C@@H]1CC[C@@H]1[C@@H]2[C@@H](O)C[C@]2(C)[C@@H](C(=O)CO)CC[C@@H]12 [3α5α-CORT, 3α,11β,21-Trihydroxy-5α-pregnan-20-one]		0.51 ± 0.1	11.8 ± 5.7	0.72 ± 0.03	-26%	-54	0.59 ± 0.08		IGABA, % of control [1]: 120 ± 16 % of control; effect on maximal GABA current [1]: did not change; maximum effect (max) on IGABA [1]: 420 ± 19 % of the control; potentiating effect on IGABA at higher GABA concentrations [1]: not observed; threshold concentration for potentiation of IGABA ([1]; 2 μM GABA): 5 µM; IGABA peak amplitude, % of control ([1]; 5 μM steroid, 2 μM GABA): 150 ± 8 % of the control; IGABA, % of control ([1]; 50 μM steroid, 2 μM GABA): 371 ± 16 % of control; IGABA, % of control ([1]; 50 μM steroid, 5 μM GABA): 156 ± 15 % of control
C[C@]12CCC(=O)C[C@H]1CC[C@@H]1[C@@H]2CC[C@]2(C)[C@@H](C(=O)CO)CC[C@@H]12 [5β-CORT, 21-Hydroxy-5β-pregnane-3,20-dione]		0.85 ± 0.3	29.3 ± 9.9	13.1 ± 5.8	No effect	-27	0.61 ± 0.09	No effect	normalized charge (Q) of IGly, maximum inhibition (max) ([2]; area under the IGly curve): 0.96 ± 0.15; IC50 [2, 6]: 37 ± 13 µM
C[C@]12CC[C@@H](O)C[C@H]1CC[C@@H]1[C@@H]2[C@@H](O)C[C@]2(C)[C@@H](C(=O)CO)CC[C@@H]12 [3α5β-CORT, 3α,11β,21-Trihydroxy-5β-pregnan-20-one]		0.44 ± 0.1	23 ± 9.6	15.2 ± 6.2	No effect	-24	0.56 ± 0.08		IGABA peak amplitude, % of control [1]: 133 ± 8 % of the control; effect on maximal GABA current [1]: did not change; maximum effect (max) on IGABA [1]: 198 ± 11 % of the control; threshold concentration for potentiation of IGABA ([1]; 2 μM GABA): 10 µM; IGABA, % of control ([1]; 50 μM steroid, 2 μM GABA): 172 ± 18 % of control; IGABA, % of control ([1]; 50 μM steroid, 5 μM GABA): 139 ± 16 % of control
C[C@]12CCC(=O)C=C1CC[C@@H]1[C@@H]2CC[C@@]2(C)[C@H]1CC[C@]2(O)C(=O)CO [11-Deoxycortisol, 17α,21-Dihydroxypregn-4-ene-3,20-dione]	No effect	0.69 ± 0.2	21.4 ± 7.6	13.8 ± 6.3	-26%	-21	0.50 ± 0.08		amplitude of IGABA, % of control (inhibition) ([1]; 100 μM steroid, 5 μM GABA): 58 ± 5 % of the control
C[C@]12CCC(=O)C[C@@H]1CC[C@@H]1[C@@H]2CC[C@]2(C)[C@@H](C(=O)CO)CC[C@@H]12 [5α-CORT, 21-Hydroxy-5α-pregnane-3,20-dione]		0.86 ± 0.2	32 ± 12.6	0.71 ± 0.02	No effect	-36	0.37 ± 0.04	No effect	
C[C@]12CC[C@H]3[C@@H](CCC4=CC(=O)CC[C@@]43C)[C@@H]1CC[C@@H]2C(=O)CO [11-deoxy-CORT, 21-Hydroxypregn-4-ene-3,20-dione]		0.67 ± 0.2	22.9 ± 9.4	12.2 ± 3.7	No effect	-32	0.72 ± 0.08	No effect	amplitude of IGABA, % of control (inhibition) [1]: 70 ± 3 % of the control; effect on IGly at low glycine ([2]; 1 μM steroid, 25 μM glycine (EC10)): did not affect; decrease in the peak amplitude of IGly ([2]; 50 μM steroid, 25 μM glycine (EC10)): 45 ± 7%
C[C@]12CC[C@H](O)CC1=CCC1C2CC[C@@]2(C)C1CC[C@]2(O)C(=O)CO (stereo partly drawn) [17α,21-diOH-PREG, 3β,17α,21-Trihydroxypregn-5-en-20-one]		0.45 ± 0.1	7.2 ± 2.6	0.39 ± 0.05	-27%	-76	0.77 ± 0.03	No effect	normalized charge (Q) of IGly, maximum inhibition (max) ([2]; area under the IGly curve): 0.52 ± 0.01; IC50 [2, 6]: 0.73 ± 0.06 µM
